Laboratory results published in patent US4613695A, “N-nitroso compounds and compositions containing such compounds” (Aktiebolaget Leo, priority 1982, dated 1986).
Read-outs that look alike come from different tables or passages of the source.

How the values were obtained:
[1] = test system: Walker carcinosarcoma 256; assay: Walker carcinosarcoma 256 tumour growth inhibition (single p.o. dose); assay type: in vivo, Female Sprague Dawley rats
Excerpt: (§1) A therapeutic index is an indication of the therapeutic usefulness of a compound, and such an index may be defined in various ways. One type of therapeutic index commonly used is the ratio LD50/ED50, wherein LD50 is the dose that causes a 50 percent lethality, and ED50 is the dose that causes a 50 percent reduction of tumour size. Another type of therapeutic index, useful in evaluation of increasing survival time, is the ratio between maximum and minimum effective dose. Both these types of therapeutic indexes are used and given in the experimental results below.
(§2) The manner of administration of the compounds is by the oral (p. o.) route in each case.
(§3) Experimental animals: Female Sprague Dawley rats
(§4) Tumour implants: Tumour pieces with 2-3 mm diameter, implanted subcutaneously
(§5) Therapy: The compound is administered p. o. once on the day after the implantation
Termination: The animals are killed on the 9th day after implantation
(§6) Evaluation: Weight of tumour is determined in test animals and compared with those of control animals. For each compound the LD50 and ED50 dose (as defined above) are determined. The therapeutic index, T. I., (LD50/ED50) is calculated.

Lymphatic leukemia L1210 = Lymphatic leukemia L1210 survival test (survival time increase, long term survival, cure potential); assay type: in vivo, Female BDF1 mice; conditions: for minimal effective dose: Mus musculus, L1210, po
Protocol: The experimental design and interpretation of the results are in accordance with the standards set by the CCNSC (see reference (16)) and by the DR&D (see reference (17)).
Experimental animals: Female BDF1 mice
Tumour implants: 10^5 tumour cells implanted intraperitoneally (i. p.)
Therapy: The compounds were administered p. o. once on the day following the implantation.
Termination: The animals were killed on the 60th day after the implantation. Living animals on the 60th day are termed long term survivors.
(a) Evaluation of therapeutic dose range for survival time increase: Survival times at various dose levels are determined, and the survival time of the test animals (t) is expressed as the percentage of that of the control animals (c):
The maximum effective dose and the minimum effective dose required to achieve t·100/c≥125% are determined, and a therapeutic index as defined below is calculated:
T. I.s =max.effect.dose/min.effect.dose.
(b) Evaluation of therapeutic dose range for long term survival: Long time survival is determined at various dose levels and is expressed as surviving test animals on day 60 (T) as the percentage of that of the total number of test animals (To):
The maximum effective dose and the minimum effective dose to achieve long term survival T·100/To >20% are determined and a therapeutic index, T. I.1 s is calculated:
T. I.1s =max.effect.dose/min.effect.dose.
(c) Evaluation of cure potential: The normal survival time for test animals receiving no therapeutic treatment is 9-11 days. Surviving test animals on the 60th day after implantation showing no sign of tumour presence are regarded as cured animals. Long term survival is determined as under (b) above, and the effective dose or dose range to achieve a long term survival T·100/To ≥90% is determined as an evaluation of the cure potential.

in vivo = conditions: rat, po
Excerpt: as §1, §2, §3, §4, §5, §6

[2] = cited from earlier work

SMILES | ED50 ([1]; Rattus norvegicus, po, dose that causes a 50 percent reduction of tumour size, p.o. once, read-out: ED50) [mg/kg] | T.I. LD50/ED50 ([1]; therapeutic index LD50/ED50, p.o.) | minimal effective dose (Lymphatic leukemia L1210; 1440 h, >20% long term survivors on day 60, p.o. once, read-out: Minimum effective dose (long term survival)) [mg/kg] | minimal effective dose (Lymphatic leukemia L1210; median survival time percent of control ≥ 125%, p.o. once, read-out: Minimum effective dose (survival time increase)) [mg/kg] | T.I.s (long term survival; max.effect.dose/min.effect.dose) (Lymphatic leukemia L1210; long term survival T·100/To >20%) | Maximum effective dose (survival time increase) (Lymphatic leukemia L1210; median survival time percent of control ≥ 125%, p.o. once) [mg/kg] | T.I.s = max.effect.dose/min.effect.dose (Lymphatic leukemia L1210; survival time increase, t·100/c ≥125%) | Dose or dose range for cure (Lymphatic leukemia L1210; ≥90% long term survivors on day 60, p.o. once) | LD50 (in vivo) [mg/kg] | other types of toxicities ([2]; references (6, 7)) | bone marrow toxicity ([2]; under clinical evaluation, reference (5))
O=NN(CCCl)C(=O)NCCCl [BCNU, 1,2-bis-(2-chloroethyl)-nitrosourea, reference compound] | 1 | 50 | 63 | 16 | 1 | 63 | 4 | none | 50 |  | 
O=NN(CCCl)C(=O)N[C@H]1C(O)O[C@H](CO)[C@@H](O)[C@@H]1O (stereo partly drawn) [Chlorozotocin, 2-/3-(2-chloroethyl)-3-nitrosoureido/-D-glucopyranose] |  |  |  |  |  |  |  |  |  | still evident, e.g. liver and lung toxicity | decreased bone marrow toxicity
